# According to patent publication US20250115581A1, “SUBSTITUTED PIPERIDINES AS CK1A DEGRADERS” (Monte Rosa Therapeutics, Inc., priority 2022, published 2025):
# Tests used:
# CK1α = target: T1, CK1α (Homo sapiens, UniProt P48729+Q96SW2); assay: CK1α NanoBit Assay (HiBiT-tagged CSNK1A1 in HEK293 cells, luminescence); type: cell-based; conditions: 24 h
# T1 construct: HEK293 clonal lines with CRISPR KI HiBiT tag on CSNK1A1; host or cells: HEK293 clonal line, CRISPR knock-in HiBiT at the CSNK1A1 locus, stably expressing LgBiT
# Protocol: HEK293 clonal lines with CRISPR KI HiBiT tag on CSNK1A1 and stably expressing LgBiT protein were obtained from Promega (Madison, WI). Cells were plated at 5000 cells per well using Multiflo (BioTek) in 384-well white solid bottom plates (Corning, 3570BC) in 25 μl volume in DMEM media (DMEM, high glucose, HEPES, no phenol red (ThermoFisher Scientific, 21063029)) containing 10% FBS (Corning, 35-075-CV), 1% Penicillin/Streptomycin ((ThermoFisher Scientific, 15140-122), and 0.2% Endurazine (Nano-Glo Endurazine Live Cell Substrate (Promega, N2571)). Cells were incubated for 16 hours at 37° C., 5% CO2. Depending on experiment 25 or 75 nL of a compound at 10 mM were added into the plate using an Echo® 650 liquid handler (Labcyte) to achieve final concentration of 10 or 30 μM in wells. Cells were incubated at 37° C., 5% CO2 for 24 hours and then signal was read on a Pherastar FSX using “LUM plus” optic module.
# Data analysis was performed in Scinamic (Scinamic, Cambridge, MA). Luminescence response (R) was calculated by the formula: response=100*(S−N)/(P−N) where S is the signal of the well, N and P the mean negative and positive control values respectively of the same plate. The luminescence response was then fitted in Scinamic using a 3-parameter agonist logistic fit (hillslope=1, EC50>0, top/bottom unconstrained).
# DC50 data are reported in Table 2 for compounds in Table 1. In Table 2 below, According to the code, A represents a DC50 value of ≤0.1 μM, B represents a DC50 value >0.1 μM and ≤1 μM, C represents an DC50 value >1 μM.
# CRBN/DDB1 = CRBN/DDB1 (Homo sapiens, UniProt Q96SW2); assay: HTRF binding assay (displacement of Cy5-thalidomide probe from CRBN/DDB1); conditions: CRBN/DDB1 2.5 nM, Cy5-Thalidomide 100 nM, 30 min; geometric mean; read-out: HTRF_Thali_Disp_DR_geo_IC50
# Text: Binding of test compounds to CRBN/DDB1 was monitored in an HTRF assay using 1-[5-({2-[2-(2-{[2-(2,6-dioxopiperidin-3-yl)-1,3-dioxo-2,3-dihydro-1H-isoindol-4-yl]oxy}acetamido)ethoxy]ethyl}carbamoyl)pentyl]-3,3-dimethyl-2-[(1E,3E)-5-[(2E)-1,3,3-trimethyl-5-sulfo-2,3-dihydro-1H-indol-2-ylidene]penta-1,3-dien-1-yl]-3H-indol-1-ium-5-sulfonate as a fluorescent probe. In this assay, compounds displace the fluorescently labeled thalidomide-based probe bound to CRBN and fluorescence is monitored with increasing compound concentration. Assays were conducted in Greiner white 384 well HiBase plates (Cat. No 784075-25) in 10 μL total volume. A one pot detection solution of CRBN/DDB1 (2.5 nM), anti-His Terbium Cryptate Gold (1×, PerkinElmer Cat. #: 61HI2TLB), and Cy5-Thalidomide (100 nM, Tenova Cat.: T52461) was prepared in 20 mM HEPES, 20 mM NaCl, 0.2 mM TCEP, 0.2 mM EDTA, and 0.005% Tween20 was dispensed to each assay plate. Test compounds were stored in dry, ambient temperatures at 10 mM. A 10-point, 1:3 dilution series was prepared from 10 mM stock concentrations in Echo-compatible LDV plates. 10 nL of each compound dilution series was dispensed into assays wells using an Echo 650 (Labcyte inc. USA). 10 nL of 10 mM lenalidomide (Selleckchem Cat no. S1029) was transferred into the active-control wells for the assay and 10 nL of DMSO was transferred into the negative control wells. The assay was then allowed to incubate for 30 min at ambient temperature after transferring the test compounds. Plate measurements were taken on a Pherastar FSX (BMG Labtech, Germany) using the HTRF Red filter (Ex. 337 nm, em1: 620 nm, em2: 665 nm) (Flashes: 50, Integration time: 60-400 μs, Z-height: 10 mm, Ratio-multiplier: 10,000). Analysis, HTRF ratio and IC50 values were derived using KNIME analytics (KNIME Zurich) transformation and fitting within Collaborative Drug Discovery (Collaborative Drug Discovery USA) using a 4-parameter logistic fit. HTRF ratio calculation was performed using the following formula: […]
# where em665 nm represents the measured emission at 665 nm upon excitation at 337 nm and em620 nm the measured emission at 620 nm upon excitation at 337 nm. The 4 parameter logistic fitting model was performed using the following formula: […]
# where Y represents the HTRF ratio response (as defined previously), X the compound concentration in μM, Ymin the minimum response plateau, Ymax the maximum response plateau, IC50 the concentration of […] that gives a response half way between Ymin and Ymax and HillSlope the steepness of the family of curves. No fitting model constraints was applied on Ymin, or Ymax whilst IC50>0 and −0.5>HillSlope>−3 Cheng-Prusoff transformation
# Ki values were derived from the geometric mean of the IC50 values using the Cheng-Prusoff transformation:
# where [L] represents the concentration of fluorescent probe in […], Kd the affinity (binding constant) of the fluorescent probe in units of μM and IC50 the concentration of agonist that gives a response halfway between Ymin and Ymax (as described in 1.2.1)
# Analysis and IC50 values were derived using KNIME analytics (KNIME, Zurich) transformation and fitting within Collaborative Drug Discovery (Collaborative Drug Discovery, USA) as described in 1.2.1. Ki values were derived from the geometric mean of the IC50 values using the Cheng-Prusoff transformation as described in 2.2.2. Data was visualized in GraphPad Prism 8.1.2 (GraphPad, USA) and reported as mean and standard deviation. Microsoft Office Excel 2012 (Redmond, WA) was used for calculation of mean and standard deviation.
# IC50 data are reported in Table 3 for compounds in Table 1. In Table 3 below, According to the code, A represents a IC50 value of ≤0.1 μM, B represents a IC50 value >0.1 μM and ≤1 μM, C represents an IC50 value >1 μM.
# T1 sequence (P48729 whole entry): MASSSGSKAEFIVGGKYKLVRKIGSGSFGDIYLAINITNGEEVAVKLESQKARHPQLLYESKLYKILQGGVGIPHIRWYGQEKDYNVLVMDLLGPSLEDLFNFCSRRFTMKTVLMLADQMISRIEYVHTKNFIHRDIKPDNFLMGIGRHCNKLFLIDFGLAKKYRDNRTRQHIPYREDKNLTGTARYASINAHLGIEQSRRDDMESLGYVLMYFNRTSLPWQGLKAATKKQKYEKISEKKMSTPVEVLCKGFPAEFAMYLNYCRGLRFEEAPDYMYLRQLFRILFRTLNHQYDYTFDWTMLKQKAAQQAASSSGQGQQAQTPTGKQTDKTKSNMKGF
# T1 sequence (Q96SW2 whole entry): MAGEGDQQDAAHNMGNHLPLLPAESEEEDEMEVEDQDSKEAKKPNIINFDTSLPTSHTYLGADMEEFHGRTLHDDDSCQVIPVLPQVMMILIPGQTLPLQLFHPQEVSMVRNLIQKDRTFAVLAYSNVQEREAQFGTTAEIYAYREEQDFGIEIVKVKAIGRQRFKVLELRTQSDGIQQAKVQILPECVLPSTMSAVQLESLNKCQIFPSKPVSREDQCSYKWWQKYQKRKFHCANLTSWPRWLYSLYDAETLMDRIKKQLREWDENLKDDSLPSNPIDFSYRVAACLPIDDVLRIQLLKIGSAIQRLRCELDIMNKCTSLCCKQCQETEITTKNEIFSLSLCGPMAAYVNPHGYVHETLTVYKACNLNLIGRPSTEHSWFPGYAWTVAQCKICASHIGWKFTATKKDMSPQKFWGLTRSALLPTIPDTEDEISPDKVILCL
# T1 sequence (Q16531 whole entry partner): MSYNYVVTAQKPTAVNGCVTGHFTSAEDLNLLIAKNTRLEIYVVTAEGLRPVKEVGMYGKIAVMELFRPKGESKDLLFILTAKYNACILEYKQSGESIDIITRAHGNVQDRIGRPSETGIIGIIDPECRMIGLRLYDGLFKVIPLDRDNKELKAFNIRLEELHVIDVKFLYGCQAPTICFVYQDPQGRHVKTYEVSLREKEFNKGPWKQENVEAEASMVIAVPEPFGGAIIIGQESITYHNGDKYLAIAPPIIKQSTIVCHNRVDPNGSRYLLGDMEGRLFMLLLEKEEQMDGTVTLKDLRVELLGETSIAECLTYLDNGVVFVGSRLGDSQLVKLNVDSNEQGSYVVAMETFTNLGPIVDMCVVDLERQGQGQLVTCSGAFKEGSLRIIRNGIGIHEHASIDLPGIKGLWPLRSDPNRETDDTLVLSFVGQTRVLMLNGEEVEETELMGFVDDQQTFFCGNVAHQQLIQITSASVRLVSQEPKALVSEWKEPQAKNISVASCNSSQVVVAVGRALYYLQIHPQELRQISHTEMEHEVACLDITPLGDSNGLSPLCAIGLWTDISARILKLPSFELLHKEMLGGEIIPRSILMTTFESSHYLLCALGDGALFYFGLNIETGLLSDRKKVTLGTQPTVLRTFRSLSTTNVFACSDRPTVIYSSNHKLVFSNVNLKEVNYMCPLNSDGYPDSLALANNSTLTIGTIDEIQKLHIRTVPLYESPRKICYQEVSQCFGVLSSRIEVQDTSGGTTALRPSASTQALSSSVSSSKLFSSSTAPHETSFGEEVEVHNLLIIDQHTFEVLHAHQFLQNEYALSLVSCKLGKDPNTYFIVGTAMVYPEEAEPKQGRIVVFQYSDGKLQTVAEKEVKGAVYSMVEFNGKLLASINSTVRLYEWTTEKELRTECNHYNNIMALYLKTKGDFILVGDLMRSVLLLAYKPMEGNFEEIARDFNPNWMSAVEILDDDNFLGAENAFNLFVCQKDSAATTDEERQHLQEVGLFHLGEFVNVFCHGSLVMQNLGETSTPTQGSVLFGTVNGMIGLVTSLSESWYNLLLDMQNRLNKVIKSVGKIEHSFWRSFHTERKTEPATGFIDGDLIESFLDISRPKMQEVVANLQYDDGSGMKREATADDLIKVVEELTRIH
# Chain of CRBN/DDB1 (Q96SW2 whole entry): as the sequence (Q96SW2 whole entry) above
# Chain of CRBN/DDB1 (Q16531 whole entry partner): as the sequence (Q16531 whole entry partner) above
SMILES,DC50 (CK1α) [µM],IC50 (CRBN/DDB1) [nM]
"O=C1CCC(N2Cc3cc(N4CCN(c5ccc6c(c5)OCC6)C4=O)ccc3C2=O)C(=O)N1 (centres unmarked) [Compound 127, 3-(5-(3-(2,3-dihydrobenzofuran-6-yl)-2-oxoimidazolidin-1-yl)-1-oxoisoindolin-2-yl)piperidine-2,6-dione]",≤ 0.1,> 1000
"CN1CCCC1c1ccc(N2CCN(c3ccc4c(c3)CN(C3CCC(=O)NC3=O)C4=O)C2=O)cc1 (centres unmarked) [Compound 177, 3-(5-(3-(4-(1-methylpyrrolidin-2-yl)phenyl)-2-oxoimidazolidin-1-yl)-1-oxoisoindolin-2-yl)piperidine-2,6-dione]",> 1,100 to 1000
"Cc1ccc(N2C(=O)N(c3ccc4c(c3)CN(C3CCC(=O)NC3=O)C4=O)C[C@@H]2C)cc1 (stereo partly drawn) [Compound 145, 3-(5-((S)-4-methyl-2-oxo-3-(p-tolyl)imidazolidin-1-yl)-1-oxoisoindolin-2-yl)piperidine-2,6-dione]",≤ 0.1,100 to 1000
"O=C1CCC(N2Cc3cc(N4CCN(c5ccc(C6CCOC6)cc5)C4=O)ccc3C2=O)C(=O)N1 (centres unmarked) [Compound 144, 3-(1-oxo-5-(2-oxo-3-(4-(tetrahydrofuran-3-yl)phenyl)imidazolidin-1-yl)isoindolin-2-yl)piperidine-2,6-dione]",≤ 0.1,100 to 1000
"O=C1CCC(N2Cc3cc(N4CCN(C5CCOCC5)C4=O)ccc3C2=O)C(=O)N1 (centres unmarked) [Compound 183, 3-(1-oxo-5-(2-oxo-3-(tetrahydro-2H-pyran-4-yl)imidazolidin-1-yl)isoindolin-2-yl)piperidine-2,6-dione]",> 1,100 to 1000
"Cc1ccc(N2C(=O)N(c3ccc4c(c3)CN(C3CCC(=O)NC3=O)C4=O)C[C@H]2C(F)F)cc1 (stereo partly drawn) [Compound 173, 3-(5-((S)-4-(difluoromethyl)-2-oxo-3-(p-tolyl)imidazolidin-1-yl)-1-oxoisoindolin-2-yl)piperidine-2,6-dione]",> 1,100 to 1000
"O=C1CCC(N2Cc3cc(N4C[C@H](C(F)(F)F)N(c5ccccc5)C4=O)ccc3C2=O)C(=O)N1 (stereo partly drawn) [Compound 108, 3-(1-oxo-5-((R)-2-oxo-3-phenyl-4-(trifluoromethyl)imidazolidin-1-yl)isoindolin-2-yl)piperidine-2,6-dione]",> 1,100 to 1000
"COCc1ccccc1N1CCN(c2ccc3c(c2)CN(C2CCC(=O)NC2=O)C3=O)C1=O (centres unmarked) [Compound 168, 3-(5-(3-(2-(methoxymethyl)phenyl)-2-oxoimidazolidin-1-yl)-1-oxoisoindolin-2-yl)piperidine-2,6-dione]",0.1 to 1,100 to 1000
"CN1CCN(c2cccc(N3CCN(c4ccc5c(c4)CN(C4CCC(=O)NC4=O)C5=O)C3=O)c2)CC1 (centres unmarked) [Compound 165, 3-(5-(3-(3-(4-methylpiperazin-1-yl)phenyl)-2-oxoimidazolidin-1-yl)-1-oxoisoindolin-2-yl)piperidine-2,6-dione]",0.1 to 1,100 to 1000
"COC1(c2ccc(N3CCN(c4ccc5c(c4)CN(C4CCC(=O)NC4=O)C5=O)C3=O)cc2)CC1 (centres unmarked) [Compound 133, 3-(5-(3-(4-(1-methoxycyclopropyl)phenyl)-2-oxoimidazolidin-1-yl)-1-oxoisoindolin-2-yl)piperidine-2,6-dione]",≤ 0.1,100 to 1000
"COc1ccc(-n2ccn(-c3ccc4c(c3)CN(C3CCC(=O)NC3=O)C4=O)c2=O)cc1 (centres unmarked) [Compound 102, 3-(5-(3-(4-methoxyphenyl)-2-oxo-2,3-dihydro-1H-imidazol-1-yl)-1-oxoisoindolin-2-yl) piperidine-2,6-dione]",> 1,100 to 1000
"Cc1ccc(N2CCN(c3ccc4c(c3)CN(C3CCC(=O)NC3=O)C4=O)C2=O)c(C)c1 (centres unmarked) [Compound 150, 3-(5-(3-(2,4-dimethylphenyl)-2-oxoimidazolidin-1-yl)-1-oxoisoindolin-2-yl)piperidine-2,6-dione]",≤ 0.1,100 to 1000

# More lines, now with the values ahead:
DC50 (CK1α) [µM],IC50 (CRBN/DDB1) [nM],SMILES
≤ 0.1,100 to 1000,"O=C1CCC(N2Cc3cc(N4CCN(c5ccc(C(F)F)cc5)C4=O)ccc3C2=O)C(=O)N1 (centres unmarked) [Compound 129, 3-(5-(3-(4-(difluoromethyl)phenyl)-2-oxoimidazolidin-1-yl)-1-oxoisoindolin-2-yl)piperidine-2,6-dione]"
0.1 to 1,100 to 1000,"Cc1ccc(N2C(=O)N(c3ccc4c(c3)CN(C3CCC(=O)NC3=O)C4=O)C[C@@H]2C(F)F)cc1 (stereo partly drawn) [Compound 158, 3-(5-((R)-4-(difluoromethyl)-2-oxo-3-(p-tolyl)imidazolidin-1-yl)-1-oxoisoindolin-2-yl)piperidine-2,6-dione]"
0.1 to 1,100 to 1000,"CN1CCN(c2ccc(N3CCN(c4ccc5c(c4)CN(C4CCC(=O)NC4=O)C5=O)C3=O)cc2)CC1 (centres unmarked) [Compound 163, 3-(5-(3-(4-(4-methylpiperazin-1-yl)phenyl)-2-oxoimidazolidin-1-yl)-1-oxoisoindolin-2-yl)piperidine-2,6-dione]"
≤ 0.1,100 to 1000,"Cc1ccc(N2C(=O)N(c3ccc4c(c3)CN(C3CCC(=O)NC3=O)C4=O)C[C@H]2C)cc1 (stereo partly drawn) [Compound 130, 3-(5-((R)-4-methyl-2-oxo-3-(p-tolyl)imidazolidin-1-yl)-1-oxoisoindolin-2-yl) piperidine-2,6-dione]"
0.1 to 1,100 to 1000,"C[C@@H]1CN(c2ccc3c(c2)CN(C2CCC(=O)NC2=O)C3=O)C(=O)N1C1CCOC1 (stereo partly drawn) [Compound 161, 3-(5-((4R)-4-methyl-2-oxo-3-(tetrahydrofuran-3-yl)imidazolidin-1-yl)-1-oxoisoindolin-2-yl)piperidine-2,6-dione]"
≤ 0.1,100 to 1000,"O=C1CCC(N2Cc3cc(N4CCN(c5cccc(C(F)(F)F)c5)C4=O)ccc3C2=O)C(=O)N1 (centres unmarked) [Compound 116, 3-(1-oxo-5-(2-oxo-3-(3-(trifluoromethyl)phenyl)imidazolidin-1-yl)isoindolin-2-yl)piperidine-2,6-dione]"
≤ 0.1,> 1000,"O=C1CCC(N2Cc3cc(N4CCN(c5ccccn5)C4=O)ccc3C2=O)C(=O)N1 (centres unmarked) [Compound 105, 3-(1-oxo-5-(2-oxo-3-(pyridin-2-yl)imidazolidin-1-yl)isoindolin-2-yl)piperidine-2,6-dione]"
